Source: US6737383B1, “Herbicidal oxadiazolidines” (priority 1999, dated 2004)

Experiments:
sandbur = test: Test D sandbur; type: in vivo, Cenchrus echinatus; details: Preemergence, 0 to 100 scale
From the text: (§1) Seeds, tubers, or plant parts of Alexandergrass (Brachiaria plantaginea), bermuda-grass (Cynodon dactylon), common pursiane (Portulaca oleracea), common ragweed (Ambrosia elatior), common groundsel (Senecio vulgaris), dallisgrass (Paspalum dilatatum), goosegrass (Eleusine indica), guineagrass (Panicum maximum), itchgrass (Rottboellia exaltata), Johnson grass (Sorghum halepense), large crabgrass (Digitaria sanguinalis), pitted morningglory (Ipomoea lacunosa), purple nutsedge (Cyperus rotundus), sandbur (Cenchrus echinatus), sourgrass (Trichachne insularis), Spanishneedles (Bidens bipinnata), surinam grass (Brachiaria decumbens) and tall mallow (Malva sylvestris) were planted into greenhouse pots of flats containing greenhouse planting medium. Plant species were grown in separate pots or individual compartments. Preemergence applications were made within one day of planting the seed or plant part.
(§2) Test chemicals were formulated in a non-phytotoxic solvent mixture which included a surfactant and applied preemergence to the surface of the pot containing seeds in a sandy loam soil. Untreated control pots and treated pots were placed in the greenhouse for growth and visually evaluated for injury 14 to 21 days after herbicide application. Plant response ratings, summarized in Table C, are based on a 0 to 100 scale where 0 is no injury and 100 is complete control. A dash (−) response means no test result.

common groundsel = test: Test D common groundsel; type: in vivo, Senecio vulgaris; details: Preemergence, 0 to 100 scale
From the text: as §1, §2

itchgrass = test: Test D itchgrass; type: in vivo, Rottboellia exaltata; details: Preemergence, 0 to 100 scale
Method in brief: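 Scoring used a 0–100 visual injury scale, with 0 meaning no effect and 100 complete control, assessed 14–21 days after application alongside untreated pots. Preemergence treatments went onto sandy loam surfaces of separately potted seeds within a day of sowing.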

large crabgrass = test: Test D large crabgrass; type: in vivo, Digitaria sanguinalis; details: Preemergence, 0 to 100 scale
Method in brief: (§3)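 Visual injury ratings, 0 = no injury to 100 = complete control, taken 14 to 21 days after treatment. Test chemicals were in a surfactant-containing non-phytotoxic solvent; preemergence treatments went onto the sandy loam surface of seeded greenhouse pots within one day of sowing.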

purple nutsedge = test: Test D purple nutsedge; type: in vivo, Cyperus rotundus; details: Preemergence, 0 to 100 scale
Method in brief: as §3

common pursiane = test: Test D common purslane; type: in vivo, Portulaca oleracea; details: Preemergence, 0 to 100 scale
Method in brief: as §3

Green foxtail [1] = test: Test D green foxtail; type: in vivo; details: Preemergence, 0 to 100 scale
From the text: as §1, §2

dallisgrass = test: Test D dallisgrass; type: in vivo, Paspalum dilatatum; details: Preemergence, 0 to 100 scale
From the text: as §1, §2

Green foxtail [2] = test: Test D green foxtail; type: in vivo
From the text: as §1, §2

guineagrass = test: Test D guineagrass; type: in vivo, Panicum maximum; details: Preemergence, 0 to 100 scale
Method in brief: as §3

goosegrass = test: Test D goosegrass; type: in vivo, Eleusine indica; details: Preemergence, 0 to 100 scale
Method in brief: as §3

Spanishneedles = test: Test D Spanishneedles; type: in vivo, Bidens bipinnata; details: Preemergence, 0 to 100 scale
From the text: as §1, §2

pitted morningglory = test: Test D pitted morningglory; type: in vivo, Ipomoea lacunosa; details: Preemergence, 0 to 100 scale
From the text: as §1
as §2, with “Plant response ratings, summarized in Table C, are based on a 0 to 100 scale where 0 is no injury and 100 is complete control.” left out

bermuda-grass = test: Test D bermudagrass; type: in vivo, Cynodon dactylon; details: Preemergence, 0 to 100 scale
Method in brief: as §3

common ragweed = test: Test D common ragweed; type: in vivo, Ambrosia elatior; details: Preemergence, 0 to 100 scale
From the text: as §1, §2

[3] = Rate 16 g/ha, 0 no injury, 100 complete control
[4] = Rate 32 g/ha, 0 no injury, 100 complete control
[5] = Rate 64 g/ha, 0 no injury, 100 complete control
[6] = Rate 125 g/ha, 0 no injury, 100 complete control
[7] = Rate 64 g/ha, Preemergence; 0 to 100 scale, 0 no injury, 100 complete control
[8] = Rate 125 g/ha, Preemergence; 0 to 100 scale, 0 no injury, 100 complete control

C=CCn1c(=O)on(C(=O)N(c2ccc(Cl)cc2)C(C)C)c1=O [Compound 105]
40: Plant response rating Large crabgrass (large crabgrass; [3]) | Plant response rating, Guineagrass (guineagrass; [3])
0: Plant response rating, Sandbur (sandbur; [3]) | Plant response rating, Sandbur (sandbur; [4]) | Sandbur plant response rating (sandbur; [5]) | Sandbur plant response rating (sandbur; [6]) | Plant response rating, Com. groundsel (common groundsel; [3]) | Plant response rating, Com. groundsel (common groundsel; [4]) | Plant response rating, Com. groundsel (common groundsel; [5]) | Plant response rating, Com. groundsel (common groundsel; [6]) | Plant response rating, Com. groundsel (common groundsel; Rate 250 g/ha) | Plant response rating, Itchgrass (itchgrass; [3]) | Plant response rating, Itchgrass (itchgrass; [4]) | Plant response rating, Purple nutsedge (purple nutsedge; [3]) | Plant response rating, Purple nutsedge (purple nutsedge; [4]) | Purple nutsedge plant response rating (purple nutsedge; [5]) | Purple nutsedge plant response rating (purple nutsedge; [6]) | Plant response rating, Purple nutsedge (purple nutsedge; Rate 250 g/ha) | Plant response rating, C. purslane (common pursiane; [3]) | Plant response rating, C. purslane (common pursiane; [4]) | Plant response rating, C. purslane (common pursiane; [5]) | Plant response rating, C. purslane (common pursiane; [6]) | Plant response rating, C. purslane (common pursiane; Rate 250 g/ha) | Plant response rating, C. purslane (common pursiane; Rate 500 g/ha) | Plant response rating, Spanishneedles (Spanishneedles; [3]) | Plant response rating, Spanishneedles (Spanishneedles; [4]) | Spanishneedles plant response rating (Spanishneedles; [5]) | Spanishneedles plant response rating (Spanishneedles; [6]) | Plant response rating, Spanishneedles (Spanishneedles; Rate 500 g/ha) | Plant response rating, P. morninglory (pitted morningglory; [3]) | Plant response rating, P. morninglory (pitted morningglory; [4]) | Plant response rating, P. morninglory (pitted morningglory; [5]) | Plant response rating, P. morninglory (pitted morningglory; [6]) | Plant response rating, P. morninglory (pitted morningglory; Rate 250 g/ha) | Plant response rating, P. morninglory (pitted morningglory; Rate 500 g/ha) | Plant response rating, C. ragweed (common ragweed; [3]) | Plant response rating, C. ragweed (common ragweed; [4]) | Plant response rating, C. ragweed (common ragweed; [5]) | Plant response rating, C. ragweed (common ragweed; [6]) | Plant response rating, C. ragweed (common ragweed; Rate 250 g/ha) | Plant response rating, C. ragweed (common ragweed; Rate 500 g/ha)
100: Plant response rating, Sandbur (sandbur; Rate 500 g/ha) | Plant response rating Large crabgrass (large crabgrass; [5]) | Plant response rating Large crabgrass (large crabgrass; [6]) | Plant response rating Large crabgrass (large crabgrass; Rate 250 g/ha) | Plant response rating Large crabgrass (large crabgrass; Rate 500 g/ha) | Plant response rating, Green foxtail (Green foxtail [1]; Rate 250 g/ha) | Plant response rating, Green foxtail (Green foxtail [1]; Rate 500 g/ha) | Plant response rating, Dallisgrass (dallisgrass; [6]) | Plant response rating, Dallisgrass (dallisgrass; Rate 250 g/ha) | Plant response rating, Dallisgrass (dallisgrass; Rate 500 g/ha) | Plant response rating, Green foxtail (Green foxtail [2]; Rate 32 g/ha; Preemergence; 0 to 100 scale, 0 no injury, 100 complete control) | Green foxtail plant response rating (Green foxtail [2]; [7]) | Plant response rating, Green foxtail (Green foxtail [2]; [7]) | Green foxtail plant response rating (Green foxtail [2]; [8]) | Plant response rating, Green foxtail (Green foxtail [2]; [8]) | Plant response rating, Green foxtail (Green foxtail [2]; Rate 250 g/ha; Preemergence; 0 to 100 scale) | Plant response rating, Green foxtail (Green foxtail [2]; Rate 500 g/ha, Preemergence; 0 to 100 scale) | Plant response rating, Guineagrass (guineagrass; Rate 250 g/ha) | Plant response rating, Guineagrass (guineagrass; Rate 500 g/ha) | Plant response rating, Goosegrass (goosegrass; Rate 250 g/ha) | Plant response rating, Goosegrass (goosegrass; Rate 500 g/ha) | Plant response rating, Bermudagrass (bermuda-grass; [6]) | Plant response rating, Bermudagrass (bermuda-grass; Rate 250 g/ha) | Plant response rating, Bermudagrass (bermuda-grass; Rate 500 g/ha)
60: Plant response rating, Dallisgrass (dallisgrass; [3])
85: Plant response rating, Itchgrass (itchgrass; Rate 250 g/ha) | Plant response rating, Itchgrass (itchgrass; Rate 500 g/ha) | Plant response rating, Green foxtail (Green foxtail [2]; Preemergence; Rate 32 g/ha; 0 to 100 scale, 0 no injury, 100 complete control) | Plant response rating, Guineagrass (guineagrass; [4]) | Plant response rating, Goosegrass (goosegrass; [3]) | Plant response rating, Bermudagrass (bermuda-grass; [3])
80: Plant response rating, Com. groundsel (common groundsel; Rate 500 g/ha)
75: Plant response rating, Purple nutsedge (purple nutsedge; Rate 500 g/ha) | Plant response rating, Green foxtail (Green foxtail [2]; Preemergence; Rate 16 g/ha; 0 to 100 scale, 0 no injury, 100 complete control) | Plant response rating, Green foxtail (Green foxtail [2]; Rate 16 g/ha; Preemergence; 0 to 100 scale, 0 no injury, 100 complete control)
98: Plant response rating, Sandbur (sandbur; Rate 250 g/ha) | Plant response rating Large crabgrass (large crabgrass; [4]) | Plant response rating, Dallisgrass (dallisgrass; [4]) | Plant response rating, Dallisgrass (dallisgrass; [5]) | Plant response rating, Guineagrass (guineagrass; [5]) | Plant response rating, Guineagrass (guineagrass; [6]) | Plant response rating, Goosegrass (goosegrass; [4]) | Plant response rating, Goosegrass (goosegrass; [5]) | Plant response rating, Goosegrass (goosegrass; [6]) | Plant response rating, Bermudagrass (bermuda-grass; [4]) | Plant response rating, Bermudagrass (bermuda-grass; [5])
20: Plant response rating, Itchgrass (itchgrass; [5]) | Plant response rating, Itchgrass (itchgrass; [6])

CCCn1c(=O)on(C(=O)N(c2ccc(F)cc2F)C(C)C)c1=O [Compound 130]
80: Plant response rating, Itchgrass (itchgrass; [5])
30: Plant response rating, C. ragweed (common ragweed; [5])
100: Sandbur plant response rating (sandbur; [5]) | Plant response rating Large crabgrass (large crabgrass; [5]) | Plant response rating, Dallisgrass (dallisgrass; [5]) | Green foxtail plant response rating (Green foxtail [2]; [7]) | Plant response rating, Green foxtail (Green foxtail [2]; [7]) | Plant response rating, Guineagrass (guineagrass; [5]) | Plant response rating, Goosegrass (goosegrass; [5]) | Plant response rating, Bermudagrass (bermuda-grass; [5])
0: Plant response rating, Com. groundsel (common groundsel; [5]) | Purple nutsedge plant response rating (purple nutsedge; [5]) | Plant response rating, C. purslane (common pursiane; [5])
65: Plant response rating, P. morninglory (pitted morningglory; [5])
60: Spanishneedles plant response rating (Spanishneedles; [5])
